Test results published in BigSolDB 2.1.

CC(C)(O)P1(=O)OCC2(CO1)COP(=O)(C(C)(C)O)OC2 (stereo not given)
Settings | solubility (mole fraction)
in acetic acid, 293.16 K | 0.00691
in acetic acid, 298.15 K | 0.0078
in acetic acid, 303.14 K | 0.00907
in acetic acid, 307.96 K | 0.0104
in acetic acid, 312.97 K | 0.0114
in acetic acid, 318.05 K | 0.0131
in acetic acid, 323.15 K | 0.015
in acetic acid, 328.05 K | 0.0173
in acetic acid, 333.04 K | 0.0196
in acetic acid, 338.14 K | 0.0231
in acetone, 293.6 K | 0.000582
in acetone, 298.44 K | 0.000762
in acetone, 303.35 K | 0.00095
in acetone, 308.29 K | 0.00124
in acetone, 313.27 K | 0.00159
in acetone, 318.4 K | 0.00194
in acetone, 323.3 K | 0.00234
in ethanol, 294.15 K | 0.00153
in ethanol, 297.63 K | 0.00184
in ethanol, 303.05 K | 0.00231
in ethanol, 307.95 K | 0.00269
in ethanol, 313.15 K | 0.00346
in ethanol, 318.16 K | 0.00391
in ethanol, 322.95 K | 0.00476
in ethanol, 327.84 K | 0.00582
in ethanol, 332.93 K | 0.00666
in ethanol, 337.94 K | 0.00846
in methanol, 293.13 K | 0.00585
in methanol, 298.15 K | 0.00665
in methanol, 302.94 K | 0.00751
in methanol, 307.75 K | 0.00875
in methanol, 312.76 K | 0.00998
in methanol, 317.95 K | 0.0117
in methanol, 323.05 K | 0.0136
in water, 293.13 K | 0.00564
in water, 298.01 K | 0.00585
in water, 303.15 K | 0.00607
in water, 308.16 K | 0.00631
in water, 313.05 K | 0.00658
in water, 317.89 K | 0.00692
in water, 323.05 K | 0.00723
in water, 328.13 K | 0.00754
in water, 332.95 K | 0.00793
in water, 337.94 K | 0.00826
in water, 342.86 K | 0.00867
